The supplement of paper PMC12592484

How the values were obtained:
Assay in all cases: drug sensitivity score (DSS2, normalised partial AUC of dose-response, 72 h CellTiter-Glo viability) (DSS (dimensionless)); higher = more sensitive (stronger growth inhibition / cytotoxicity); extreme values may be limits of the assay
[1] = tested on: 22Rv1
In short: (§1)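 Five doses spanning a 10,000-fold range were pre-dispensed into 384-well plates, into which low-passage primary prostate cancer-associated fibroblasts, PF179T, WPMY-1, LNCaP and 22Rv1 cells were seeded. After 72 h, CellTiter-Glo 2.0 luminescence measured viability, scaled to vehicle and positive-control wells. Higher values of the drug sensitivity score, a BREEZE-computed partial area under the fitted logistic dose–response curve divided by the log of the upper asymptote, mean greater sensitivity.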

[2] = tested on: CAF#1 (primary prostate cancer-associated fibroblasts of myCAF-like type)
In short: as §1

[3] = tested on: CAF#2 (primary prostate cancer-associated fibroblasts of iCAF-like type)
In short: as §1

[4] = tested on: CAF#3 (primary prostate cancer-associated fibroblasts of myCAF-like type)
In short: as §1

[5] = tested on: CAF#4 (primary prostate cancer-associated fibroblasts of iCAF-like type)
In short: as §1

[6] = tested on: CAF#5 (primary prostate cancer-associated fibroblasts of myCAF-like type)
In short: as §1

[7] = tested on: CAF#6 (primary prostate cancer-associated fibroblasts of iCAF-like type)
In short: as §1

[8] = tested on: CAF#7 (primary prostate cancer-associated fibroblasts of myCAF-like type)
In short: as §1

[9] = tested on: LNCAP
In short: as §1

[10] = tested on: PF179T
In short: as §1

[11] = tested on: WPMY-1
In short: as §1

N#CC[C@H](C1CCCC1)n1cc(-c2ncnc3[nH]ccc23)cn1 [Ruxolitinib] (tested concentration range 1-10000 nM)
drug sensitivity score [1]: 0
drug sensitivity score [2]: 0
drug sensitivity score [3]: 0.8
drug sensitivity score [4]: 0
drug sensitivity score [5]: 0
drug sensitivity score [6]: 1.3
drug sensitivity score [7]: 0
drug sensitivity score [8]: 0
drug sensitivity score [9]: 1.5
drug sensitivity score [10]: 0
drug sensitivity score [11]: 0.6

CC(C)N(CCCNC(=O)Nc1ccc(C(C)(C)C)cc1)C[C@H]1O[C@@H](n2cc(Br)c3c(N)ncnc32)[C@H](O)[C@@H]1O [SGC0946] (tested concentration range 1-10000 nM)
drug sensitivity score [1]: 1.6
drug sensitivity score [2]: 0.2
drug sensitivity score [3]: 0
drug sensitivity score [4]: 0.5
drug sensitivity score [5]: 0.8
drug sensitivity score [6]: 0
drug sensitivity score [7]: 0.1
drug sensitivity score [8]: 1.2
drug sensitivity score [9]: 2.1
drug sensitivity score [10]: 0
drug sensitivity score [11]: 2.2

COc1ccc(CCc2nc3cc(-c4c(C)noc4C)ccc3n2C[C@H](C)N2CCOCC2)cc1Cl [SGC-CBP30] (tested concentration range 2.5-25000 nM)
drug sensitivity score [1]: 6.2
drug sensitivity score [2]: 1.6
drug sensitivity score [3]: 1.5
drug sensitivity score [4]: 5.4
drug sensitivity score [5]: 1.3
drug sensitivity score [6]: 0.8
drug sensitivity score [7]: 2.2
drug sensitivity score [8]: 1.2
drug sensitivity score [9]: 8.5
drug sensitivity score [10]: 0.1
drug sensitivity score [11]: 7.4

CN(CC(=O)N(Cc1ccc(C2CCCCC2)cc1)c1ccc(C(=O)O)cc1)S(=O)(=O)c1c(F)c(F)c(F)c(F)c1F [SH-4-54] (tested concentration range 2.5-25000 nM)
drug sensitivity score [1]: 8.4
drug sensitivity score [2]: 6.3
drug sensitivity score [3]: 6.3
drug sensitivity score [4]: 5.4
drug sensitivity score [5]: 5.6
drug sensitivity score [6]: 6
drug sensitivity score [7]: 7.2
drug sensitivity score [8]: 4.6
drug sensitivity score [9]: 6
drug sensitivity score [10]: 5.5
drug sensitivity score [11]: 6.5

CCc1c2c(nc3ccc(O)cc13)-c1cc3c(c(=O)n1C2)COC(=O)[C@]3(O)CC [SN-38] (tested concentration range 1-10000 nM)
drug sensitivity score [1]: 39.3
drug sensitivity score [2]: 20.3
drug sensitivity score [3]: 25.5
drug sensitivity score [4]: 7.1
drug sensitivity score [5]: 20.3
drug sensitivity score [6]: 14.3
drug sensitivity score [7]: 8.7
drug sensitivity score [8]: 11.8
drug sensitivity score [9]: 34.8
drug sensitivity score [10]: 19.7
drug sensitivity score [11]: 35

CC[C@@H](C(=O)[C@@H](C)[C@@H](O)[C@H](C)[C@@H]1O[C@@H]([C@@H](CC)C(=O)O)CC[C@@H]1C)[C@H]1O[C@]2(C=C[C@@H](O)[C@]3(CC[C@@](C)([C@H]4CC[C@](O)(CC)[C@H](C)O4)O3)O2)[C@H](C)C[C@@H]1C [Salinomycin] (tested concentration range 5-50000 nM)
drug sensitivity score [1]: 26.4
drug sensitivity score [2]: 26.8
drug sensitivity score [3]: 26.5
drug sensitivity score [4]: 9.4
drug sensitivity score [5]: 25.2
drug sensitivity score [6]: 23.6
drug sensitivity score [7]: 21.2
drug sensitivity score [8]: 18.5
drug sensitivity score [9]: 29.1
drug sensitivity score [10]: 19.1
drug sensitivity score [11]: 28.8

CC(C)n1nc(-c2ccc3oc(N)nc3c2)c2c(N)ncnc21 [Sapanisertib] (tested concentration range 0.1-1000 nM)
drug sensitivity score [1]: 21.2
drug sensitivity score [2]: 20.2
drug sensitivity score [3]: 14
drug sensitivity score [4]: 14.3
drug sensitivity score [5]: 17.8
drug sensitivity score [6]: 19.1
drug sensitivity score [7]: 14.6
drug sensitivity score [8]: 13.2
drug sensitivity score [9]: 20
drug sensitivity score [10]: 18
drug sensitivity score [11]: 13.7

CN1CCN(CCOc2cc(OC3CCOCC3)c3c(Nc4c(Cl)ccc5c4OCO5)ncnc3c2)CC1 [Saracatinib] (tested concentration range 1-10000 nM)
drug sensitivity score [1]: 4.3
drug sensitivity score [2]: 7.7
drug sensitivity score [3]: 7.7
drug sensitivity score [4]: 10.1
drug sensitivity score [5]: 6.7
drug sensitivity score [6]: 8.2
drug sensitivity score [7]: 6.6
drug sensitivity score [8]: 5.8
drug sensitivity score [9]: 6.4
drug sensitivity score [10]: 5.5
drug sensitivity score [11]: 5.4

CC[C@H](CO)Nc1nc(NCc2ccccc2)c2ncn(C(C)C)c2n1 [Seliciclib] (tested concentration range 1-10000 nM)
drug sensitivity score [1]: 0.2
drug sensitivity score [2]: 1.7
drug sensitivity score [3]: 1.1
drug sensitivity score [4]: 1.4
drug sensitivity score [5]: 1.4
drug sensitivity score [6]: 2
drug sensitivity score [7]: 1.1
drug sensitivity score [8]: 2.3
drug sensitivity score [9]: 4.3
drug sensitivity score [10]: 0
drug sensitivity score [11]: 0.6

O=C(/C=C\n1cnc(-c2cc(C(F)(F)F)cc(C(F)(F)F)c2)n1)NNc1cnccn1 [Selinexor] (tested concentration range 1-10000 nM)
drug sensitivity score [1]: 30.5
drug sensitivity score [2]: 16.5
drug sensitivity score [3]: 21.3
drug sensitivity score [4]: 9.9
drug sensitivity score [5]: 17.8
drug sensitivity score [6]: 14.6
drug sensitivity score [7]: 11.7
drug sensitivity score [8]: 11.9
drug sensitivity score [9]: 26.2
drug sensitivity score [10]: 16.4
drug sensitivity score [11]: 27.4

Cc1cc(F)c(C(=O)Nc2cccc(-c3nncn3C(C)C)n2)cc1-n1cnc(C2CC2)c1 [Selonsertib] (tested concentration range 0.1-1000 nM)
drug sensitivity score [1]: 0
drug sensitivity score [2]: 0
drug sensitivity score [3]: 0
drug sensitivity score [4]: 0
drug sensitivity score [5]: 0
drug sensitivity score [6]: 0
drug sensitivity score [7]: 0
drug sensitivity score [8]: 0
drug sensitivity score [9]: 1.4
drug sensitivity score [10]: 0
drug sensitivity score [11]: 0

Cn1cnc2c(F)c(Nc3ccc(Br)cc3Cl)c(C(=O)NOCCO)cc21 [Selumetinib] (tested concentration range 1-10000 nM)
drug sensitivity score [1]: 14.4
drug sensitivity score [2]: 1.2
drug sensitivity score [3]: 4.5
drug sensitivity score [4]: 0
drug sensitivity score [5]: 2.5
drug sensitivity score [6]: 1.6
drug sensitivity score [7]: 1.1
drug sensitivity score [8]: 2.6
drug sensitivity score [9]: 0
drug sensitivity score [10]: 2.5
drug sensitivity score [11]: 4.3

Nc1nc2cc(-c3ccc4ncc(C(=O)N5CCOCC5)n4c3)ccc2o1 [Serabelisib] (tested concentration range 1-10000 nM)
drug sensitivity score [1]: 5.2
drug sensitivity score [2]: 3.2
drug sensitivity score [3]: 4.3
drug sensitivity score [4]: 4.2
drug sensitivity score [5]: 2.1
drug sensitivity score [6]: 5.7
drug sensitivity score [7]: 4.5
drug sensitivity score [8]: 3.4
drug sensitivity score [9]: 2.3
drug sensitivity score [10]: 2.8
drug sensitivity score [11]: 1.2

O=C(O)c1ccc2c(c1)nc(Nc1cccc(Cl)c1)c1ccncc12 [Silmitasertib] (tested concentration range 1-10000 nM)
drug sensitivity score [1]: 6
drug sensitivity score [2]: 5.4
drug sensitivity score [3]: 4
drug sensitivity score [4]: 0.7
drug sensitivity score [5]: 2.2
drug sensitivity score [6]: 4.6
drug sensitivity score [7]: 0.6
drug sensitivity score [8]: 1.5
drug sensitivity score [9]: 3.9
drug sensitivity score [10]: 2.5
drug sensitivity score [11]: 5.1

CO[C@H]1C[C@@H]2CC[C@@H](C)[C@@](O)(O2)C(=O)C(=O)N2CCCC[C@H]2C(=O)O[C@H]([C@H](C)C[C@@H]2CC[C@@H](O)[C@H](OC)C2)CC(=O)[C@H](C)/C=C(\C)[C@@H](O)[C@@H](OC)C(=O)[C@H](C)C[C@H](C)/C=C/C=C/C=C/1C [Sirolimus] (tested concentration range 0-100 nM)
drug sensitivity score [1]: 9.3
drug sensitivity score [2]: 6.5
drug sensitivity score [3]: 6.8
drug sensitivity score [4]: 2.2
drug sensitivity score [5]: 4.9
drug sensitivity score [6]: 7.4
drug sensitivity score [7]: 3.4
drug sensitivity score [8]: 3.7
drug sensitivity score [9]: 2.5
drug sensitivity score [10]: 5.6
drug sensitivity score [11]: 4

COCCNCc1ccc(-c2cc3nccc(Oc4ccc(NC(=O)C5(C(=O)Nc6ccc(F)cc6)CC5)cc4F)c3s2)nc1 [Sitravatinib] (tested concentration range 0.2-2500 nM)
drug sensitivity score [1]: 4.7
drug sensitivity score [2]: 5.5
drug sensitivity score [3]: 9.7
drug sensitivity score [4]: 4.5
drug sensitivity score [5]: 6.6
drug sensitivity score [6]: 6.6
drug sensitivity score [7]: 3.4
drug sensitivity score [8]: 5.7
drug sensitivity score [9]: 2.1
drug sensitivity score [10]: 6.7
drug sensitivity score [11]: 5.9

Cc1c(C(=O)Nc2ccc(N3C[C@@H](C)O[C@@H](C)C3)nc2)cccc1-c1ccc(OC(F)(F)F)cc1 [Sonidegib] (tested concentration range 1-10000 nM)
drug sensitivity score [1]: 2.2
drug sensitivity score [2]: 0
drug sensitivity score [3]: 1.7
drug sensitivity score [4]: 0
drug sensitivity score [5]: 3.2
drug sensitivity score [6]: 1.5
drug sensitivity score [7]: 0
drug sensitivity score [8]: 0
drug sensitivity score [9]: 4.9
drug sensitivity score [10]: 0
drug sensitivity score [11]: 0

CNC(=O)c1cc(Oc2ccc(NC(=O)Nc3ccc(Cl)c(C(F)(F)F)c3)cc2)ccn1 [Sorafenib] (tested concentration range 0.1-1000 nM)
drug sensitivity score [1]: 0
drug sensitivity score [2]: 0
drug sensitivity score [3]: 0
drug sensitivity score [4]: 2.6
drug sensitivity score [5]: 1.2
drug sensitivity score [6]: 0
drug sensitivity score [7]: 0
drug sensitivity score [8]: 0
drug sensitivity score [9]: 0
drug sensitivity score [10]: 0
drug sensitivity score [11]: 0

CN1CCN(c2nc(C3=C(c4c[nH]c5ccccc45)C(=O)NC3=O)c3ccccc3n2)CC1 [Sotrastaurin] (tested concentration range 1-10000 nM)
drug sensitivity score [1]: 3.6
drug sensitivity score [2]: 0
drug sensitivity score [3]: 2.2
drug sensitivity score [4]: 0
drug sensitivity score [5]: 0
drug sensitivity score [6]: 0
drug sensitivity score [7]: 0
drug sensitivity score [8]: 0
drug sensitivity score [9]: 3.5
drug sensitivity score [10]: 0
drug sensitivity score [11]: 1.5

CC(C)n1cnc2c(NCCc3ccc(O)cc3)nc(-c3csc4ccccc34)nc21 [StemRegenin 1] (tested concentration range 1-10000 nM)
drug sensitivity score [1]: 2.5
drug sensitivity score [2]: 1.5
drug sensitivity score [3]: 1.7
drug sensitivity score [4]: 3.5
drug sensitivity score [5]: 2.6
drug sensitivity score [6]: 1.7
drug sensitivity score [7]: 0.6
drug sensitivity score [8]: 0
drug sensitivity score [9]: 5
drug sensitivity score [10]: 0
drug sensitivity score [11]: 2.1

CCN(CC)CCNC(=O)c1c(C)[nH]c(/C=C2\C(=O)Nc3ccc(F)cc32)c1C [Sunitinib] (tested concentration range 0.1-1000 nM)
drug sensitivity score [1]: 0.8
drug sensitivity score [2]: 0
drug sensitivity score [3]: 2.5
drug sensitivity score [4]: 2.8
drug sensitivity score [5]: 0
drug sensitivity score [6]: 0.3
drug sensitivity score [7]: 0
drug sensitivity score [8]: 0
drug sensitivity score [9]: 0
drug sensitivity score [10]: 0
drug sensitivity score [11]: 0.5

C[C@@H](NC(=O)c1ncnc(N)c1Cl)c1ncc(C(=O)Nc2cc(C(F)(F)F)c(Cl)cn2)s1 [TAK-580] (tested concentration range 1-10000 nM)
drug sensitivity score [1]: 0
drug sensitivity score [2]: 0
drug sensitivity score [3]: 0
drug sensitivity score [4]: 0.5
drug sensitivity score [5]: 2.3
drug sensitivity score [6]: 0
drug sensitivity score [7]: 0
drug sensitivity score [8]: 0.3
drug sensitivity score [9]: 0.2
drug sensitivity score [10]: 0
drug sensitivity score [11]: 0.5

Cc1cccc(-c2[nH]c(CNc3ccccc3F)nc2-c2ccc3ncnn3c2)n1 [TEW-7197] (tested concentration range 0.2-2500 nM)
drug sensitivity score [1]: 0
drug sensitivity score [2]: 0.5
drug sensitivity score [3]: 0
drug sensitivity score [4]: 0.5
drug sensitivity score [5]: 0
drug sensitivity score [6]: 0.3
drug sensitivity score [7]: 0
drug sensitivity score [8]: 0
drug sensitivity score [9]: 0
drug sensitivity score [10]: 0
drug sensitivity score [11]: 0

Nc1nc(NC2CC2)cc(-c2cccc(Cl)c2Cl)n1 [TH588] (tested concentration range 2.5-25000 nM)
drug sensitivity score [1]: 4.2
drug sensitivity score [2]: 2
drug sensitivity score [3]: 2.7
drug sensitivity score [4]: 3
drug sensitivity score [5]: 2.7
drug sensitivity score [6]: 1.7
drug sensitivity score [7]: 1.9
drug sensitivity score [8]: 0.5
drug sensitivity score [9]: 6.5
drug sensitivity score [10]: 2.8
drug sensitivity score [11]: 7.9

Clc1ccccc1C(c1ccccc1)(c1ccccc1)n1cccn1 [TRAM-34] (tested concentration range 0.1-1000 nM)
drug sensitivity score [1]: 0
drug sensitivity score [2]: 0.8
drug sensitivity score [3]: 0.1
drug sensitivity score [4]: 0
drug sensitivity score [5]: 0
drug sensitivity score [6]: 0
drug sensitivity score [7]: 0
drug sensitivity score [8]: 0
drug sensitivity score [9]: 0
drug sensitivity score [10]: 0
drug sensitivity score [11]: 0
